Publication PMC12410356 (International Journal for Parasitology: Drugs and Drug …, 2025)
Where two headings read alike, the source gives them in different places.

Tests used:
[1] = test system: Reuber rat hepatoma (RH) cells; assay: Mammalian cell toxicity, resazurin assay; format: cell-based; settings: for IC50: 5 days incubation, mean ± SD
Experimental: Mammalian cell toxicity on RH cells was measured as described in [Rufener et al. (2018)] with few alterations. Briefly, confluent (50′000 cells/well) and pre-confluent (5′000 cells/well) were seeded into 96-well plates in DMEM supplemented with 10 % FBS, penicillin (100 U/mL), streptomycin (100 μg/mL) and tetracycline (5 μg/mL) and incubated at 37 °C under a humid, 5 % CO2 atmosphere for 24 h and 5 h respectively. Alexidine, ESI-09 and MMV1581545 were added to final concentrations ranging from 120 to 0.49 μM (1:3 serial dilution) to each well and then cells were incubated at 37 °C under a humid, 5 % CO2 atmosphere for 5 days. To measure viability, the medium was removed, 180 μL of PBS was added to the cells and resazurin was added to each well to a final concentration of 10 mg/L. The cells were then allowed to process the resazurin at RT for 1 h. Fluorescence was measured on a HIDEX Sense microplate reader. Measurements were performed in triplicates and IC50 values were calculated in R using the three parameter Weibull type 1 model for three independent experiments ([Ritler et al., 2020]).

cancer cell lines = test system: cancer cell lines; parameters: method as in Maeda et al., 2020; settings: ref Maeda et al., 2020; cited from earlier work
[2] = test system: E. multilocularis GL cells; assay: Seahorse mito cell stress test, oxygen consumption rate; format: cell-based, Echinococcus multilocularis; settings: titration in GL cells
Experimental: To measure mitochondrial respiration in E. multilocularis GL cells, Seahorse “mito cell stress test” was performed according to the manual for Seahorse XFp Extracellular Flux Analyzer (Agilent Technologies, Basel, Switzerland) with some adaptations ([Gu et al., 2021]; [Rufener et al., 2018]). Seahorse XFp 8-well plates were hydrated and incubated together with Seahorse XF calibrant solution at 37 °C in a non-CO2 incubator overnight the day before the actual experiment. […] Oligomycin was used at a final concentration of 1.5 μM. […] The experiment was repeated three times independently with two technical replicates.

SMILES: CC(C)(C)c1cc(C(=O)/C(C#N)=N/Nc2cccc(Cl)c2)no1 [ESI-09]
- toxicity against mammalian cell line (in words) ([1]; RH cells counter-screen): moderate toxicity
- IC50 ([1]; Rattus norvegicus, 120 h, confluent, read-out: IC50 confluent RH cells): 37.3 ± 0.73 µM
- IC50 ([1]; Rattus norvegicus, 120 h, pre-confluent, read-out: IC50 pre-confluent RH cells): 9.02 ± 1.3 µM
- IC50 ([1]; pre-confluent, read-out: IC50 pre-confluent RH cells): 9.03 ± 1.3 µM
- optimal uncoupling concentration in cancer cell lines (cancer cell lines): 2 µM
- optimal (maximal) uncoupling concentration [2]: 2 µM
